# Like-named read-outs stand apart in the source and are kept apart here.
# Assays:
# Test in all cases: Kinase selectivity, scanMAX Kinase assay panel (DiscoverX), % control at 1 uM
# Assay type in all cases: binding
# [1] = biological target: T1, scanMAX Kinase assay panel (Homo sapiens, UniProt P10721, T670I/V559D); settings: KIT (V559D, T670I); 1 uM; read-out: Percent Control (%)
# T1 construct: purchased DiscoverX
# Outline: (§1)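 Compounds were tested at 1 uM in DMSO against each enzyme in the panel. Percent control was calculated as (compound − positive control)/(negative control − positive control) × 100, and a compound was scored active on a kinase when this value fell below 35.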
# [2] = biological target: T2, scanMAX Kinase assay panel (Homo sapiens, UniProt P48729); settings: CSNK1A1; 1 uM; read-out: Percent Control (%)
# T2 construct: purchased DiscoverX
# Outline: as §1
# [3] = biological target: T3, scanMAX Kinase assay panel (Homo sapiens, UniProt Q00535); settings: CDK5; 1 uM; read-out: Percent Control (%)
# T3 construct: purchased DiscoverX
# Outline: as §1
# [4] = biological target: T4, scanMAX Kinase assay panel (Homo sapiens, UniProt Q8WU08); settings: YANK1; 1 uM; read-out: Percent Control (%)
# T4 construct: purchased DiscoverX
# Outline: as §1
# [5] = biological target: T5, scanMAX Kinase assay panel (Homo sapiens, UniProt Q15349); settings: 1 uM, read-out: Percent Control (%)
# T5 construct: purchased DiscoverX
# Outline: as §1
# [6] = biological target: T6, scanMAX Kinase assay panel (Homo sapiens, UniProt Q8TDX7); settings: NEK7; 1 uM; read-out: Percent Control (%)
# T6 construct: purchased DiscoverX
# Outline: as §1
# [7] = biological target: T7, scanMAX Kinase assay panel (Homo sapiens, UniProt Q8NG66); settings: NEK11; 1 uM; read-out: Percent Control (%)
# T7 construct: purchased DiscoverX
# T7 sequence (Q8NG66 1-645): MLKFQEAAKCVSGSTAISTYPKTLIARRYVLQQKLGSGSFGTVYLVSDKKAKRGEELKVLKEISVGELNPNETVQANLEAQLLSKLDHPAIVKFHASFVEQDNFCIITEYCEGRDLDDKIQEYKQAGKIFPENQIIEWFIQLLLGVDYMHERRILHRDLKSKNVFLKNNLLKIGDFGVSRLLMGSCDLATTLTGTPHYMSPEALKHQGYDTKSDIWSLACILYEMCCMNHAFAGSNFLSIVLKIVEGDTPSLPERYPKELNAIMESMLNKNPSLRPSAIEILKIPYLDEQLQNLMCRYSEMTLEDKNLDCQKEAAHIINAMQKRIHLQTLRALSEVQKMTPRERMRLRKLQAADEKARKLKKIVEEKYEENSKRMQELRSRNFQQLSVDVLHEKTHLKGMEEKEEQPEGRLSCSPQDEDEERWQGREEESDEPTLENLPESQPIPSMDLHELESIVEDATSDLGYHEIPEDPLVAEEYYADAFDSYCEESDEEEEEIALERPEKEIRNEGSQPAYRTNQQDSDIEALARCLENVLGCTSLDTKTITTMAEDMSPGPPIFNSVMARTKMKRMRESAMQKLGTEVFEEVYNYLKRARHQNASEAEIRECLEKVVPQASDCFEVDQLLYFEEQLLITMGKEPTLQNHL
# Outline: as §1
# [8] = biological target: T8, scanMAX Kinase assay panel (Homo sapiens, UniProt Q9H4A3); settings: WNK1; 1 uM; read-out: Percent Control (%)
# T8 construct: purchased DiscoverX
# Outline: as §1
# [9] = biological target: T9, scanMAX Kinase assay panel (Homo sapiens, UniProt Q06418); settings: TYRO3; 1 uM; read-out: Percent Control (%)
# T9 construct: purchased DiscoverX
# T9 sequence (Q06418 41-890): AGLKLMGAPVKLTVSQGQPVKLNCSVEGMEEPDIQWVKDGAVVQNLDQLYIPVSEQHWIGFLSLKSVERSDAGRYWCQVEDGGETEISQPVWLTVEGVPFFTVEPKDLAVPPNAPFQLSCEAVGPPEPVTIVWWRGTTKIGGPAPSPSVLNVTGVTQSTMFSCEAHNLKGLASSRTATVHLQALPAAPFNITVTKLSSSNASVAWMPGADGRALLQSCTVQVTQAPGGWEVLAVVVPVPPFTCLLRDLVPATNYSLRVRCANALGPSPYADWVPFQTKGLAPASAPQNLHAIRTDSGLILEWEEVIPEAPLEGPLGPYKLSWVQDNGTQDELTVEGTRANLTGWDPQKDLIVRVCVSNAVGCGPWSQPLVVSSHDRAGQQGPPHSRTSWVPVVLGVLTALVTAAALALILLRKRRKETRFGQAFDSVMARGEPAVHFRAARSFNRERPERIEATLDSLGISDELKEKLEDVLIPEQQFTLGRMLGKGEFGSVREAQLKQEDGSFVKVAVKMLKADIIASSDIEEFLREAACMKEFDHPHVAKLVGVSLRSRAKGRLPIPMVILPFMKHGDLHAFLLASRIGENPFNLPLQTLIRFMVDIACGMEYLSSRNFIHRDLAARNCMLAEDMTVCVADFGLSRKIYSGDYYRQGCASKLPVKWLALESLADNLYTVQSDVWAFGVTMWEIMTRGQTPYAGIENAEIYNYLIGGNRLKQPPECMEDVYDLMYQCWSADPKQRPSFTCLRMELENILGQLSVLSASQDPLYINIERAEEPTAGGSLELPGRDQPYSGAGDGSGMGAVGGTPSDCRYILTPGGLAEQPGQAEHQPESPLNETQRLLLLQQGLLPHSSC
# Outline: as §1
# [10] = biological target: T10, scanMAX Kinase assay panel (Homo sapiens, UniProt Q8NEB9); settings: VPS34; 1 uM; read-out: Percent Control (%)
# T10 construct: purchased DiscoverX
# Outline: as §1
# [11] = biological target: T11, scanMAX Kinase assay panel (Homo sapiens, UniProt P51812); settings: 1 uM, read-out: Percent Control (%)
# T11 construct: purchased DiscoverX
# Outline: as §1
# [12] = biological target: T12, scanMAX Kinase assay panel (Homo sapiens, UniProt Q13882); settings: BRK; 1 uM; read-out: Percent Control (%)
# T12 construct: purchased DiscoverX
# Outline: as §1
# [13] = biological target: T13, scanMAX Kinase assay panel (Homo sapiens, UniProt Q13555); settings: CAMK2G; 1 uM; read-out: Percent Control (%)
# T13 construct: purchased DiscoverX
# Outline: as §1
# T1 sequence (P10721 26-976 V559D/T670I): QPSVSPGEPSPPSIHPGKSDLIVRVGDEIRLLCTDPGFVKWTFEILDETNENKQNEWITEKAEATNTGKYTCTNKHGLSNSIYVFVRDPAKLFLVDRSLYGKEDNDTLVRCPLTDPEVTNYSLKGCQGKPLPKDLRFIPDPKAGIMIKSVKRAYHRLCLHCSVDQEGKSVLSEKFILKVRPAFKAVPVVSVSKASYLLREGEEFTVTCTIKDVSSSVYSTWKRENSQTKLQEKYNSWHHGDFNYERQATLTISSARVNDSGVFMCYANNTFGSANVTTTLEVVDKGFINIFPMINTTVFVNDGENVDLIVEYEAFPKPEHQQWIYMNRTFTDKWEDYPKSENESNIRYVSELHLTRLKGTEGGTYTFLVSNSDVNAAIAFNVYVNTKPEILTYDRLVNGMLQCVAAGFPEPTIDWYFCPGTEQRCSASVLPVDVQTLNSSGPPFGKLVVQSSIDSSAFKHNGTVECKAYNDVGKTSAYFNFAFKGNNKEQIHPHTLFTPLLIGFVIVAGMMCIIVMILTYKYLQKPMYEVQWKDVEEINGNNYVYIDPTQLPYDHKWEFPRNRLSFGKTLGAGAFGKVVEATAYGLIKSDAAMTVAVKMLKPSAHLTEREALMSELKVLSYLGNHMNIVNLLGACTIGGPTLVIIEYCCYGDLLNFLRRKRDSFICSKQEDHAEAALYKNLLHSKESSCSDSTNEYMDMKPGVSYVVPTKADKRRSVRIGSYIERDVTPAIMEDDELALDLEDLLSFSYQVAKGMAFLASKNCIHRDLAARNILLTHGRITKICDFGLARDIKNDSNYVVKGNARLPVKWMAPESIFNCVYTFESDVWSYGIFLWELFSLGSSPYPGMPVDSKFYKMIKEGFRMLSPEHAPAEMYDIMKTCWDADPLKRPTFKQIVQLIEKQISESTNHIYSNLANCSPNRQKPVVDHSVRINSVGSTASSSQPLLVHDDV
# T11 sequence (P51812 whole entry): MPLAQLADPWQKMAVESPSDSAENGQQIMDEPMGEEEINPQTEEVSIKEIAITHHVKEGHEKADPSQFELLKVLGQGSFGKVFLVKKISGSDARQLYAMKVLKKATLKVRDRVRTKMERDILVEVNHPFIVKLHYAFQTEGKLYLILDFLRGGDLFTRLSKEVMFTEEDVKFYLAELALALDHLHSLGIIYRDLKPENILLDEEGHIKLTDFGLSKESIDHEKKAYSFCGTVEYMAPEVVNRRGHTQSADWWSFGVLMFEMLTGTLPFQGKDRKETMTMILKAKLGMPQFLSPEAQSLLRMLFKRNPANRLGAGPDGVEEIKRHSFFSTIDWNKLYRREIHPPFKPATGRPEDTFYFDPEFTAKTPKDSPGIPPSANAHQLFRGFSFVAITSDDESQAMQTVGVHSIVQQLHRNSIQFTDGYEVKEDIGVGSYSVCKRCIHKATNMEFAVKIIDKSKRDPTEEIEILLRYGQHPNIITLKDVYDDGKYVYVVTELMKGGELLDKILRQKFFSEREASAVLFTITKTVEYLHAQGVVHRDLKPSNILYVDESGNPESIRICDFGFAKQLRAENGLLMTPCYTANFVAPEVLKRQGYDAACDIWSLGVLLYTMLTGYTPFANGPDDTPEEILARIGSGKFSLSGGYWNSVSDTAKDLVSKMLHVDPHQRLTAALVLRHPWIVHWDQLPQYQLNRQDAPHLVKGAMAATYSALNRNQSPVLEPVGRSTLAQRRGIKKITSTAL
# T2 sequence (P48729 whole entry): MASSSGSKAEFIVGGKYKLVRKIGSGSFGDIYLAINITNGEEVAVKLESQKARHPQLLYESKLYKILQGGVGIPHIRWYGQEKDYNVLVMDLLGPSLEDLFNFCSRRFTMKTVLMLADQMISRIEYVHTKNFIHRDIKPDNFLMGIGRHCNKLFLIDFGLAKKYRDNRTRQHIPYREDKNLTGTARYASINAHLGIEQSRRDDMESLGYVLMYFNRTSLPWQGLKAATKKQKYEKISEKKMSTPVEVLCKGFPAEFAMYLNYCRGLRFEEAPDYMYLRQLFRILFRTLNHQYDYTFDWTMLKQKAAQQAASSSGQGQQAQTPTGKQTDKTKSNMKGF
# T12 sequence (Q13882 whole entry): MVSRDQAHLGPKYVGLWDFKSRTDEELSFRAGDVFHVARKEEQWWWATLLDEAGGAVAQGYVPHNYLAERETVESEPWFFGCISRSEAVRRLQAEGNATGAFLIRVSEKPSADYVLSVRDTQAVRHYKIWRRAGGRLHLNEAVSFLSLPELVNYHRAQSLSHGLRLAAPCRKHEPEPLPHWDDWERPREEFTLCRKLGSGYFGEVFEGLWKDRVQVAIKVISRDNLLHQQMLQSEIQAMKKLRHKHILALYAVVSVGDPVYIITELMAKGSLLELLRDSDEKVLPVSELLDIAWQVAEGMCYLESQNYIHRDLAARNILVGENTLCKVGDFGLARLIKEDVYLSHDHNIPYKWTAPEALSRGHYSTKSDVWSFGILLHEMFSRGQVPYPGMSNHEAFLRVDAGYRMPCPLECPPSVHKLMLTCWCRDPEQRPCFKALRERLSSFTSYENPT
# T5 sequence (Q15349 whole entry): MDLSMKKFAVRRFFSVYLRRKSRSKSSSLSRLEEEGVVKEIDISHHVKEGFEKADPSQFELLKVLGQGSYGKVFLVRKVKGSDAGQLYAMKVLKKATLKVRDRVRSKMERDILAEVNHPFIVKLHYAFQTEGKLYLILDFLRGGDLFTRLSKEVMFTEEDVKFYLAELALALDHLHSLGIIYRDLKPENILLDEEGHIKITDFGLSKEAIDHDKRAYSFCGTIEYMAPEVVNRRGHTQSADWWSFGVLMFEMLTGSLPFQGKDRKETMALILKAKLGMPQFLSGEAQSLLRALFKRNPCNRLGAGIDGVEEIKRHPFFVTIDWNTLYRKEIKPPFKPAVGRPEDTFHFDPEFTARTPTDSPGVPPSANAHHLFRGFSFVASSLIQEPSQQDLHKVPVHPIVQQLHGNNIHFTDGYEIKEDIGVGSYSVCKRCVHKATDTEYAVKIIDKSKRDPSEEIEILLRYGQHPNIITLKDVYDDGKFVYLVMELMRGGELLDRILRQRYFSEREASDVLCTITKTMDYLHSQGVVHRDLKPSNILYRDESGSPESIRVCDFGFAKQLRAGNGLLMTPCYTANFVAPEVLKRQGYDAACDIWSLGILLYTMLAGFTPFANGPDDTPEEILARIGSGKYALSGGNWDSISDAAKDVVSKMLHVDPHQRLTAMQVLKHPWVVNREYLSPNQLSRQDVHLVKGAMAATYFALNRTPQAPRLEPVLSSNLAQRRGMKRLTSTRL
# T6 sequence (Q8TDX7 whole entry): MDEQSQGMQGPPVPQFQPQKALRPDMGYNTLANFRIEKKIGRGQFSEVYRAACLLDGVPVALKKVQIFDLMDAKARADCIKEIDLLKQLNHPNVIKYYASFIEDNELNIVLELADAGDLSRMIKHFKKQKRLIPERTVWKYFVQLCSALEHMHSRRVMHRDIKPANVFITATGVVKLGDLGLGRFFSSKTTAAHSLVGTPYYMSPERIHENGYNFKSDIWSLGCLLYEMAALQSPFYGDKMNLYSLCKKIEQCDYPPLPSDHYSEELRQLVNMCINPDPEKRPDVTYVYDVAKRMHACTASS
# T13 sequence (Q13555 whole entry): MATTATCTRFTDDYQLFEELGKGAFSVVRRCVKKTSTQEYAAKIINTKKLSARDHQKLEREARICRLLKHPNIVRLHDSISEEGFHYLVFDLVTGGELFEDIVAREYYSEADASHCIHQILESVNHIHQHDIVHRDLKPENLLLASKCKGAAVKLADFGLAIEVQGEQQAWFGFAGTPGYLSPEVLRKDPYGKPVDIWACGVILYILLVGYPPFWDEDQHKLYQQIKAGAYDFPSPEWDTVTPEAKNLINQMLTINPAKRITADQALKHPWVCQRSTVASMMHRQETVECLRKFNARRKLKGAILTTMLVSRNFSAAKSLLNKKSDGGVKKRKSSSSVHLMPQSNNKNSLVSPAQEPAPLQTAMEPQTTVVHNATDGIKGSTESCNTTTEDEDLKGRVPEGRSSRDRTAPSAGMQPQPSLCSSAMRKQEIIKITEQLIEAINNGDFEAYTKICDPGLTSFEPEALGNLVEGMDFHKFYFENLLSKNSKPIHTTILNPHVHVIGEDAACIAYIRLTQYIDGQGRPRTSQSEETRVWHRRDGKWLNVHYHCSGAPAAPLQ
# T3 sequence (Q00535 whole entry): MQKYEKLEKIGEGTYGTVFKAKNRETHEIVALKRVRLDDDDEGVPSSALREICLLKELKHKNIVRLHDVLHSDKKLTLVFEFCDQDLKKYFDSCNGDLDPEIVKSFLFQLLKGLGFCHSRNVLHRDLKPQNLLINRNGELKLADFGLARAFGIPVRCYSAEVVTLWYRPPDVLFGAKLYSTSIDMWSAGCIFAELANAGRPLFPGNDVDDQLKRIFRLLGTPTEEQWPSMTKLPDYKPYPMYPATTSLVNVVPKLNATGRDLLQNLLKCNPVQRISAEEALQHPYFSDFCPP
# T4 sequence (Q8WU08 whole entry): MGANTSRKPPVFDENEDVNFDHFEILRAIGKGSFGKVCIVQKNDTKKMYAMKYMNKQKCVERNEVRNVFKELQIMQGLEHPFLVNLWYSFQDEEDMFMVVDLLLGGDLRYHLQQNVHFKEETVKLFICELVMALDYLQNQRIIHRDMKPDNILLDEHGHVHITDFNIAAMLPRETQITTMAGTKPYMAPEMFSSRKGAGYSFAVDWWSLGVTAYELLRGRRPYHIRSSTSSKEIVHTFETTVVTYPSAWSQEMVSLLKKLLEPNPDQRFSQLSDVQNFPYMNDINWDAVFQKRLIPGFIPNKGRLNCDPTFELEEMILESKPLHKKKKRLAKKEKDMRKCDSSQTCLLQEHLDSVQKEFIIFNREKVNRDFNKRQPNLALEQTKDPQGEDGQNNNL
SMILES,remaining binding at 1 µM [1] [%],remaining binding at 1 µM [2] [%],remaining binding at 1 µM [3] [%],remaining binding at 1 µM [4] [%],remaining binding at 1 µM ([5]; RSK3 (Kin.Dom.1-N-terminal)) [%],remaining binding at 1 µM ([5]; RSK3 (Kin.Dom.2-C-terminal)) [%],remaining binding at 1 µM [6] [%],remaining binding at 1 µM [7] [%],remaining binding at 1 µM [8] [%],remaining binding at 1 µM [9] [%],remaining binding at 1 µM [10] [%],remaining binding at 1 µM ([11]; RSK2 (Kin.Dom.1-N-terminal)) [%],remaining binding at 1 µM ([11]; RSK2 (Kin.Dom.2-C-terminal)) [%],remaining binding at 1 µM [12] [%],remaining binding at 1 µM [13] [%]
Cc1ccc(NC(=O)C2(C(=O)Nc3ccc(F)cc3)CC2)cc1C#Cc1cnc2c(Nc3cnn(C(C)C)c3)cccn12 [Example 78],63,85,100,84,97,100,100,100,92,95,80,99,81,99,100
"Cc1cn(-c2cc(NC(=O)c3ccc(C)c(C#Cc4cnc5c(Nc6cnn(C)c6)cccn45)c3)cc(C(F)(F)F)c2)cn1 [Example 12, 4-methyl-N-(3-(4-methyl-1H-imidazol-1-yl)-5-(trifluoromethyl)phenyl)-3-((8-((1-methyl-1H-pyrazol-4-yl)amino)imidazo[1,2-a]pyridin-3-yl)ethynyl)benzamide]",3,76,89,98,65,86,82,100,100,42,96,100,94,68,80
"Cc1ccc(C(=O)Nc2ccc(CN3CCN(C)CC3)c(C(F)(F)F)c2)cc1C#Cc1cnc2c(Nc3cnn(C)c3)cccn12 [Example 1, 4-methyl-3-((8-((1-methyl-1H-pyrazol-4-yl)amino)imidazo[1,2-a]pyridin-3-yl)ethynyl)-N-(4-((4-methylpiperazin-1-yl)methyl)-3-(trifluoromethyl)phenyl)benzamide]",0,67,30,69,29,61,71,13,55,21,100,35,93,23,73

# Source: US10870647B2, “Imidazopyridine derivative, method for preparing same, and pharmaceutical composition containing same as active ingredient for preventing or treating cancer” (DAEGU-GYEONGBUK MEDICAL INNOVATION FOUNDATION, priority 2016, dated 2020)
